In the supplement of paper PMC10307832 one finds relative viability data, which are given here for seven cell lines.

Holding throughout (assay): relative viability (nuclei count vs DMSO), 5 days (fraction); higher = more cells survive
Compound in the assay “Motesanib + Palbociclib”: CC1(C)CNc2cc(NC(=O)c3cccnc3NCc3ccncc3)ccc21 [Motesanib] + CC(=O)c1c(C)c2cnc(Nc3ccc(N4CCNCC4)cn3)nc2n(C2CCCC2)c1=O [Palbociclib] (partner 0.5 µM)
The essentials:
(§1)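 Relative viability divides the nuclei count in treated wells by that in vehicle wells. Lung cancer cell lines were seeded in 1536-well plates, dosed by pin tool the next day, and fixed and stained after 5 days in one step with final 0.05% Triton X-100, 1% formaldehyde and 1 ug/ml Hoechst. Dosing was a single drug or a fixed anchor-drug dose plus five library-drug doses (not always all listed) in √10 steps, and values are medians of duplicate plates imaged at 4×.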

Compound in assay [1]: C[C@@]1(C(=O)Nc2ccc(F)nc2)CCCN1c1nc(Nc2cc(C3CC3)n[nH]2)c2cccn2n1 + CS(=O)(=O)N1CCN(Cc2cc3nc(-c4cccc5[nH]ncc45)nc(N4CCOCC4)c3s2)CC1 [Pictilisib] (partner 1 µM)
In a few lines:
as §1

Compound in the assay “Motesanib + Alpelisib”: CC1(C)CNc2cc(NC(=O)c3cccnc3NCc3ccncc3)ccc21 [Motesanib] + Cc1nc(NC(=O)N2CCC[C@H]2C(N)=O)sc1-c1ccnc(C(C)(C)C(F)(F)F)c1 [Alpelisib] (partner 2 µM)
The essentials: as §1

Compound in assay [2]: C[C@@]1(C(=O)Nc2ccc(F)nc2)CCCN1c1nc(Nc2cc(C3CC3)n[nH]2)c2cccn2n1 + Nc1nc2[nH]cc(CCc3ccc(C(=O)N[C@@H](CCC(=O)O)C(=O)O)cc3)c2c(=O)[nH]1 [Pemetrexed] (partner 0.2 µM)
The essentials: as §1

As for NCI-H2405, the relative viability is 0.511 with Motesanib + Palbociclib (first compound 0.01 µM); 0.499 with Motesanib + Palbociclib (first compound 0.03162 µM); 0.535 with Motesanib + Palbociclib (first compound 0.1 µM); 0.562 in the assay with Motesanib + Palbociclib (first compound 0.3162 µM); 0.52 with Motesanib + Palbociclib (first compound 1 µM); 0.391 in assay [1] (first compound 0.04 µM). Further, the relative viability in assay [1] (first compound 0.1265 µM) was found to be 0.357; in assay [1] (first compound 0.4 µM), 0.37; in assay [1] (first compound 1.265 µM), 0.296; with Motesanib + Alpelisib (first compound 0.03162 µM), 0.738; in the assay with Motesanib + Alpelisib (first compound 0.1 µM) it was 0.745; with Motesanib + Alpelisib (first compound 0.3162 µM), 0.86. The relative viability with Motesanib + Alpelisib (first compound 1 µM) amounted to 0.942; in assay [2] (first compound 0.04 µM), 0.8; in assay [2] (first compound 0.1265 µM), 0.905; in assay [2] (first compound 0.4 µM), 0.819; in assay [2] (first compound 1.265 µM), 0.614.
Take NCI-H322M: the relative viability was 0.486 in the assay with Motesanib + Palbociclib (first compound 0.01 µM); 0.439 with Motesanib + Palbociclib (first compound 0.03162 µM); 0.48 in the assay with Motesanib + Palbociclib (first compound 0.1 µM); 0.508 with Motesanib + Palbociclib (first compound 0.3162 µM); 0.466 with Motesanib + Palbociclib (first compound 1 µM); 0.479 in assay [1] (first compound 0.04 µM). In addition, the relative viability in assay [1] (first compound 0.1265 µM) was found to be 0.376; in assay [1] (first compound 0.4 µM) it was 0.371; in assay [1] (first compound 1.265 µM), 0.507; with Motesanib + Alpelisib (first compound 0.01 µM), 0.713; with Motesanib + Alpelisib (first compound 0.03162 µM), 0.737; with Motesanib + Alpelisib (first compound 0.1 µM) it was 0.837. The relative viability in the assay with Motesanib + Alpelisib (first compound 0.3162 µM) was 0.751; with Motesanib + Alpelisib (first compound 1 µM), 0.778; in assay [2] (first compound 0.04 µM) it was 0.63; in assay [2] (first compound 0.1265 µM), 0.525; in assay [2] (first compound 0.4 µM), 0.52; in assay [2] (first compound 1.265 µM), 0.537.
For NCI-H2170, the relative viability in the assay with Motesanib + Palbociclib (first compound 0.01 µM) was 0.397; in the assay with Motesanib + Palbociclib (first compound 0.03162 µM) it was 0.382; with Motesanib + Palbociclib (first compound 0.1 µM) it was 0.388; with Motesanib + Palbociclib (first compound 0.3162 µM) it was 0.377; with Motesanib + Palbociclib (first compound 1 µM), 0.397; in assay [1] (first compound 0.04 µM), 0.243. Also, the relative viability in assay [1] (first compound 0.1265 µM) is 0.212; in assay [1] (first compound 0.4 µM) it was 0.188; in assay [1] (first compound 1.265 µM), 0.243; with Motesanib + Alpelisib (first compound 0.01 µM), 0.803; in the assay with Motesanib + Alpelisib (first compound 0.03162 µM), 0.789; with Motesanib + Alpelisib (first compound 0.1 µM), 0.824. Moreover, the relative viability with Motesanib + Alpelisib (first compound 0.3162 µM) came to 0.785; with Motesanib + Alpelisib (first compound 1 µM), 0.794; in assay [2] (first compound 0.04 µM) it was 0.278; in assay [2] (first compound 0.1265 µM), 0.236; in assay [2] (first compound 0.4 µM) it was 0.267; in assay [2] (first compound 1.265 µM), 0.251.
Regarding NCI-H1395, the relative viability with Motesanib + Palbociclib (first compound 0.01 µM) stood at 0.682; with Motesanib + Palbociclib (first compound 0.03162 µM), 0.602; in the assay with Motesanib + Palbociclib (first compound 0.1 µM), 0.623; with Motesanib + Palbociclib (first compound 0.3162 µM), 0.661; in the assay with Motesanib + Palbociclib (first compound 1 µM), 0.661; in assay [1] (first compound 0.04 µM), 0.664. In addition, the relative viability in assay [1] (first compound 0.1265 µM) is 0.436; in assay [1] (first compound 0.4 µM) it was 0.761; in assay [1] (first compound 1.265 µM) it was 0.788; with Motesanib + Alpelisib (first compound 0.01 µM) it was 1.04; with Motesanib + Alpelisib (first compound 0.03162 µM) it was 0.922; in the assay with Motesanib + Alpelisib (first compound 0.1 µM) it was 0.992. In addition, the relative viability with Motesanib + Alpelisib (first compound 0.3162 µM) stood at 0.998; with Motesanib + Alpelisib (first compound 1 µM), 1.02; in assay [2] (first compound 0.04 µM), 0.89; in assay [2] (first compound 0.1265 µM) it was 0.411; in assay [2] (first compound 0.4 µM), 0.879; in assay [2] (first compound 1.265 µM) it was 0.868.
With NCI-H358, the relative viability with Motesanib + Palbociclib (first compound 0.01 µM) is 0.142; with Motesanib + Palbociclib (first compound 0.03162 µM), 0.133; with Motesanib + Palbociclib (first compound 0.1 µM), 0.132; in the assay with Motesanib + Palbociclib (first compound 0.3162 µM), 0.161; with Motesanib + Palbociclib (first compound 1 µM) it was 0.13; in assay [1] (first compound 0.04 µM), 0.259. Also, the relative viability in assay [1] (first compound 0.1265 µM) is 0.237; in assay [1] (first compound 0.4 µM) it was 0.173; in assay [1] (first compound 1.265 µM) it was 0.277; with Motesanib + Alpelisib (first compound 0.01 µM), 0.949; with Motesanib + Alpelisib (first compound 0.03162 µM), 0.938; with Motesanib + Alpelisib (first compound 0.1 µM), 0.88. Also, the relative viability in the assay with Motesanib + Alpelisib (first compound 0.3162 µM) is 0.839; with Motesanib + Alpelisib (first compound 1 µM), 1.02; in assay [2] (first compound 0.04 µM) it was 0.15; in assay [2] (first compound 0.1265 µM) it was 0.155; in assay [2] (first compound 0.4 µM), 0.117; in assay [2] (first compound 1.265 µM), 0.137.
With NCI-H838, the relative viability with Motesanib + Palbociclib (first compound 0.01 µM) stood at 0.204; with Motesanib + Palbociclib (first compound 0.03162 µM), 0.203; with Motesanib + Palbociclib (first compound 0.1 µM) it was 0.213; with Motesanib + Palbociclib (first compound 0.3162 µM), 0.198; with Motesanib + Palbociclib (first compound 1 µM), 0.241; in assay [1] (first compound 0.04 µM), 0.514. Also, the relative viability in assay [1] (first compound 0.1265 µM) was found to be 0.379; in assay [1] (first compound 0.4 µM), 0.263; in assay [1] (first compound 1.265 µM), 0.365; with Motesanib + Alpelisib (first compound 0.01 µM) it was 0.992; with Motesanib + Alpelisib (first compound 0.03162 µM), 1.02; in the assay with Motesanib + Alpelisib (first compound 0.1 µM), 1.08. Moreover, the relative viability was determined as 0.982 with Motesanib + Alpelisib (first compound 0.3162 µM); 1.03 with Motesanib + Alpelisib (first compound 1 µM); 0.234 in assay [2] (first compound 0.04 µM); 0.233 in assay [2] (first compound 0.1265 µM); 0.216 in assay [2] (first compound 0.4 µM); 0.215 in assay [2] (first compound 1.265 µM).
With CAL-12T, the relative viability with Motesanib + Palbociclib (first compound 0.01 µM) came to 0.418; with Motesanib + Palbociclib (first compound 0.03162 µM), 0.524; with Motesanib + Palbociclib (first compound 0.1 µM) it was 0.347; in the assay with Motesanib + Palbociclib (first compound 0.3162 µM) it was 0.415; with Motesanib + Palbociclib (first compound 1 µM), 0.563; in assay [1] (first compound 0.04 µM), 0.41. The relative viability was 0.395 in assay [1] (first compound 0.1265 µM); 0.463 in assay [1] (first compound 0.4 µM); 0.304 in assay [1] (first compound 1.265 µM); 1.22 with Motesanib + Alpelisib (first compound 0.01 µM); 1.31 with Motesanib + Alpelisib (first compound 0.03162 µM); 1.26 in the assay with Motesanib + Alpelisib (first compound 0.1 µM). In addition, the relative viability with Motesanib + Alpelisib (first compound 0.3162 µM) is 1.44; with Motesanib + Alpelisib (first compound 1 µM), 1.11; in assay [2] (first compound 0.04 µM), 0.818; in assay [2] (first compound 0.1265 µM) it was 0.999; in assay [2] (first compound 0.4 µM) it was 0.777; in assay [2] (first compound 1.265 µM), 0.812.
